One block for each compound: values may come before it.
Tests used:
[1] = biological target: T1, PTGR1 Prostaglandin reductase 1 (Homo sapiens, UniProt Q14914); experiment: competitive isoTOP-ABPP; type: binding
T1 construct: isoTOP-ABPP experiments performed in cell lysates (in vitro); endogenous in cells; host or cells: soluble proteome of human cancer cell lines (MDA-MB-231; Ramos and Jurkat also prepared)
In short: (§1)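 Cell lysate treated in vitro with fragments (50 μM activated esters, 100 μM guanidinylating agents) or DMSO, labelled 1 h at ambient temperature with 0.1 mM STP-alkyne, CuAAC-tagged with light/heavy TEV tags, analysed by MS. R = DMSO/compound MS1 peak-area ratio; lysines with R≥4 called liganded.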

[2] = biological target: T2, UBA2 SUMO-activating enzyme subunit 2 (Homo sapiens, UniProt Q9UBT2); experiment: competitive isoTOP-ABPP; type: binding; conditions: 50 uM, in vitro
T2 construct: endogenous in cells; host or cells: MDA-MB-231 (soluble fraction of lysate)
T2 sequence (Q9UBT2 1-640): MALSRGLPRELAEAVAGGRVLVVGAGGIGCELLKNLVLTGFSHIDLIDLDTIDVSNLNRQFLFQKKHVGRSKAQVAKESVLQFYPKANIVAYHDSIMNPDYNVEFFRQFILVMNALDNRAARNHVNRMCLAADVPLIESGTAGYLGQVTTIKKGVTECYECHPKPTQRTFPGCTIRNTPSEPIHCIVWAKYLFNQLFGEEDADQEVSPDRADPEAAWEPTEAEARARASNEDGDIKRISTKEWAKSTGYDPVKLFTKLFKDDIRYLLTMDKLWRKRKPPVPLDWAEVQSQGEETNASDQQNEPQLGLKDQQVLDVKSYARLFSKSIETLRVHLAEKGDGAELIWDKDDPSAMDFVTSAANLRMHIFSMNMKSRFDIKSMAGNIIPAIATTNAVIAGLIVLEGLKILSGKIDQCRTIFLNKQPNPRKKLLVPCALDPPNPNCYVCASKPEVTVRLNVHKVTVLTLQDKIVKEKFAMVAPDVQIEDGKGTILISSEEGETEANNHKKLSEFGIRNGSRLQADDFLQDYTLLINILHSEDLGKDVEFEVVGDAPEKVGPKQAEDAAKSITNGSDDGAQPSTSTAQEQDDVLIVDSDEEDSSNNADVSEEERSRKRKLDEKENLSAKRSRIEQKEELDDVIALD
T2 sequence (Q9UBE0 1-346 partner): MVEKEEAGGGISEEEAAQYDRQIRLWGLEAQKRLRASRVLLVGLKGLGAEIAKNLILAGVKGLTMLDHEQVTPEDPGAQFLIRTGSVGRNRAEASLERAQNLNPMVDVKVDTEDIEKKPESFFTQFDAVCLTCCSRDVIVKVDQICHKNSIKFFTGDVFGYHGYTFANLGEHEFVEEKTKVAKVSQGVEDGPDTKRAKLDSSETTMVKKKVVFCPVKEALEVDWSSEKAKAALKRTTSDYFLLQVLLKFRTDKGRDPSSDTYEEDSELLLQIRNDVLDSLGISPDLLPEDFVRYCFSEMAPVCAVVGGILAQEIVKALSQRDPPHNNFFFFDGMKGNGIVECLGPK
In short: as §1

T1 sequence (Q14914 whole entry): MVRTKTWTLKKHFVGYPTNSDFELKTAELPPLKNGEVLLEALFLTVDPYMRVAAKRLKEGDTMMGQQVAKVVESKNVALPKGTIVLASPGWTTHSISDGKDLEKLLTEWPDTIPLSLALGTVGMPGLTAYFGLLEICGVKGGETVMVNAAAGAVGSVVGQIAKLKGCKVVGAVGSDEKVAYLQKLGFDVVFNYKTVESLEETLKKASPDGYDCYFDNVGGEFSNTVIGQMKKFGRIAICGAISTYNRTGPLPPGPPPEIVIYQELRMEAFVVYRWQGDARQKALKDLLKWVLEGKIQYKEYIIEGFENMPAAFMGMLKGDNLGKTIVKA

- R value (DMSO/fragment) for probe 1 labeling ([1]; Q14914_K194, 50 uM, 231 sol, in vitro): 1.6
- R value (DMSO/fragment) for probe 1 labeling ([2]; Q9UBT2_K409, 231 sol): 4.1
SMILES: O=C(Oc1c(F)c(F)c(F)c(F)c1F)C(c1ccccc1)c1ccccc1 [fragment 20, Pentafluorophenyl 2,2-diphenylacetate]

SMILES: O=C(CCc1ccc2c(c1)OCO2)Oc1ccc([N+](=O)[O-])cc1[N+](=O)[O-] [fragment 45, 2,4-Dinitrophenyl 3-(benzo[d][1,3]dioxol-5-yl)propanoate]
- isoTOP-ABPP ratio, lysine Q14914_K194 ([1]; 50 uM_231_sol_in vitro): 5.5

SMILES: O=C(Oc1ccc([N+](=O)[O-])cc1[N+](=O)[O-])C(c1ccccc1)c1ccccc1 [fragment 30, 2,4-Dinitrophenyl 2,2-diphenylacetate]
- isoTOP-ABPP reactivity ratio at lysine Q9UBT2_K409 ([2]; 231 sol): 7.3

SMILES: O=C(Oc1ccc([N+](=O)[O-])cc1[N+](=O)[O-])c1cc(C(F)(F)F)cc(C(F)(F)F)c1 [fragment 31, 2,4-Dinitrophenyl 3,5-bis(trifluoromethyl)benzoate]
- isoTOP-ABPP reactivity ratio at lysine Q9UBT2_K409 ([2]; 231 sol): 6.2

- isoTOP-ABPP ratio, lysine Q14914_K194 ([1]; 100 uM_231_sol_in vitro): 1.2
SMILES: CC(C)(C)OC(=O)N=C(NC(=O)OC(C)(C)C)n1cccn1 [fragment 50, reference compound]

SMILES: O=C(CCc1coc2cc(F)ccc2c1=O)Oc1ccc([N+](=O)[O-])cc1[N+](=O)[O-] [fragment 36, 2,4-Dinitrophenyl 3-(7-fluoro-4-oxo-4H-chromen-3-yl)propanoate]
- isoTOP-ABPP ratio (R) at liganded lysine Q14914_K194 ([1]; 50 uM, in vitro, sol, 231): 1.7
- isoTOP-ABPP ratio (R) at liganded lysine Q9UBT2_K409 ([2]; sol, 231): 3.6

- isoTOP-ABPP ratio, lysine Q14914_K194 ([1]; 100 uM_231_sol_in vitro): 1.3
SMILES: COC(=O)NC(=NC(=O)OCC1c2ccccc2-c2ccccc21)n1cccn1 [fragment 49, N-Methoxycarbonyl-N′-9-fluorenylmethoxycarbonyl-pyrazole-1-carboxamidine]

Source: US20210255193A1, “LYSINE REACTIVE PROBES AND USES THEREOF” (The Scripps Research Institute, priority 2017, published 2021)
